Assay [1] addresses T1, rat B1R (bradykinin receptor 1) (Rattus norvegicus, UniProt P97583).
T1 construct: expressed in transfected cells; host or cells: CHO K1 cells
T1 sequence (P97583 1-337): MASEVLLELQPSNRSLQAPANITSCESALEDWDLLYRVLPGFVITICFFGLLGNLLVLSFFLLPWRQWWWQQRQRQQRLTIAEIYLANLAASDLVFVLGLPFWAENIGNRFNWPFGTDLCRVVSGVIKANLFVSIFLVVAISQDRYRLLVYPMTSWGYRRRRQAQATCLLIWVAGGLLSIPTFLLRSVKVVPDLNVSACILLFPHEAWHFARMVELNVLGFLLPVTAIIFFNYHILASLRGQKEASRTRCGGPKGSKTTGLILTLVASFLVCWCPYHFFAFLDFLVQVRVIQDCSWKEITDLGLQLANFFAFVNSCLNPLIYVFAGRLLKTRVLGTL
As to the kind of experiment: FLIPR Ca2+ assay (Fluo-4) on CHO K1 cells stably transfected with the B1R gene of the rat (rB1R cells): % inhibition at 10 μM / IC50, agonist Des-Arg9-bradykinin. Format: cell-based. The conditions noted are these: for inhibition at 10 µM: CHO-K1, rat B1R. In a few lines: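 Loading with Fluo-4 occurs for 60 min at 37 °C, or alternatively in buffer A, before FLIPR measurement. Compounds are applied, incubated 10–20 min, and then the EC80 agonist is added. Antagonism appears as reduced peak Ca2+ signal relative to maximal inhibition.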

Assay [2] has as its target T2, human B1R (bradykinin receptor 1) (Homo sapiens, UniProt P46663).
T2 construct: expressed in transfected cells; host or cells: CHO K1 cells
T2 sequence (P46663 1-353): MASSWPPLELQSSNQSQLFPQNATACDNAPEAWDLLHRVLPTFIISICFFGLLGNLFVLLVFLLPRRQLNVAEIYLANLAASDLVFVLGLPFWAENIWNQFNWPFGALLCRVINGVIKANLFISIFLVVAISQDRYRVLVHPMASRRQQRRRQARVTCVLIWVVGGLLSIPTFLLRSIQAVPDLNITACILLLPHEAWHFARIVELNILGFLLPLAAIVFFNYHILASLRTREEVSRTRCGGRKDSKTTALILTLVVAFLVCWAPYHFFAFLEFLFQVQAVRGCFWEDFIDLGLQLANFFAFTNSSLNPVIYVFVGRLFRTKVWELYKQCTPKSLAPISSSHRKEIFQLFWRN
As to the kind of experiment: FLIPR Ca2+ assay (Fluo-4) on CHO K1 cells stably transfected with the human B1R gene (hB1R cells): % inhibition at 10 μM / IC50, agonist Lys-Des-Arg9-bradykinin. Particulars: for inhibition at 10 µM: CHO-K1, human B1R. It counts as cell-based. On the procedure:
The agonistic or antagonistic action of substances can be quantified on the bradykinin receptor 1 (B1R) of the human and rat species with ectopically expressing cell lines (CHO K1 cells) and with the aid of a Ca^2+-sensitive dyestuff (Fluo-4) in a fluorescent imaging plate reader (FLIPR). The figure in % activation is based on the Ca^2+ signal after addition of Lys-Des-Arg^9-bradykinin (0.5 nM) or Des-Arg^9-bradykinin (100 nM). Antagonists lead to a suppression of the Ca^2+ inflow after addition of the agonist. % inhibition compared with the maximum achievable inhibition is stated.
The agonistic or antagonistic action of substances can be determined on the bradykinin receptor 1 (B1R) of the human and rat species with the following assay. In accordance with this assay, the Ca^2+ inflow through the channel is quantified with the aid of a Ca^2+-sensitive dyestuff (type Fluo-4, Molecular Probes Europe BV, Leiden, Holland) in a fluorescent imaging plate reader (FLIPR, Molecular Devices, Sunnyvale, USA).
Chinese hamster ovary cells (CHO K1 cells) transfected stably with the human B1R gene (hB1R cells) or the B1R gene of the rat (rB1R cells) are used. For functional studies, these cells are plated out on black 96-well plates with a clear base (BD Biosciences, Heidelberg, Germany or Greiner, Frickenhausen, Germany) in a density of 20,000-35,000 cells/well. The cells are left overnight at 37° C. and 5% CO2 in culture medium (hB1R cells: Nutrient Mixture Ham's F12, Gibco Invitrogen GmbH, Karlsruhe, Germany or DMEM, Sigma-Aldrich, Taufkirchen, Germany; rB1R cells: D-MEM/F12, Gibco Invitrogen GmbH, Karlsruhe, Germany) with 10 vol. % FBS (foetal bovine serum, Gibco Invitrogen GmbH, Karlsruhe, Germany or PAN Biotech GmbH, Aidenbach, Germany). On the following day, the cells are loaded for 60 min at 37° C. with 2.13 μM Fluo-4 (Molecular Probes Europe BV, Leiden Holland) in HBSS buffer (Hank's buffered saline solution, Gibco Invitrogen GmbH, Karlsruhe, Germany) with 2.5 mM probenecid (Sigma-Aldrich, Taufkirchen, Germany) and 10 mM HEPES (Sigma-Aldrich, Taufkirchen, Germany). The plates are then washed 2× with HBSS buffer, and HBSS buffer which additionally contains 0.1% BSA (bovine serum albumin; Sigma-Aldrich, Taufkirchen, Germany), 5.6 mM glucose and 0.05% gelatine (Merck KGaA, Darmstadt, Germany) is added. After a further incubation of 20 minutes at room temperature, the plates are inserted into the FLIPR for the Ca^2+ measurement. Alternatively, the plates are washed with buffer A (15 mM HEPES, 80 mM NaCl, 5 mM KCl, 1.2 mM CaCl2, 0.7 mM MgSO4, 2 g/l glucose, 2.5 mM probenecid), buffer A is added and the plates are loaded with 2.5 μM Fluo-4 and 0.025% Pluronic F127 (Sigma-Aldrich, Taufkirchen, Germany). Thereafter, the cells are washed 2× with buffer A and incubated for 30 minutes at room temperature with buffer A, which additionally contains 0.05% BSA and 0.05% gelatine, and thereafter inserted into the FLIPR for the Ca^2+ measurement. The Ca^2+-dependent fluorescence is measured here before and after addition of substances (λex=488 nm, λem=540 nm). Quantification is by measurement of the highest fluorescence intensity (FC, fluorescence counts) over time.
The FLIPR protocol consists of 2 additions of substance. Test substances (10 μM) are first pipetted on to the cells and the Ca^2+ inflow is compared with the control (hB1R: Lys-Des-Arg^9-bradykinin>=50 nM; rB1R: Des-Arg^9-bradykinin 10 μM). This gives the result in % activation based on the Ca^2+ signal after addition of Lys-Des-Arg^9-bradykinin (>=50 nM) or Des-Arg^9-bradykinin (10 μM). After incubation for 10-20 minutes, Lys-Des-Arg^9-bradykinin (hB1R) or Des-Arg^9-bradykinin (rB1R) in the concentration of the EC80 is applied and the inflow of Ca^2+ is likewise determined. Antagonists lead to a suppression of the Ca^2+ inflow. % inhibition compared with the maximum achievable inhibition is calculated.
For determination of the IC50 value, the substances are added in various concentrations. […]

Each structure is given as a SMILES string.

For orientation: inhibition means the relative decrease from the control value, in per cent. With `O=C(NC1CCc2ccc(C(=O)N3CCC4(CC3)CCN(c3ccc(C(F)(F)F)cc3)CC4)cc21)c1c(F)cccc1Cl` (centres unmarked) [IND_CC-278, 2-Chloro-6-fluoro-N-[6-[9-[4-(trifluoromethyl)-phenyl]-3,9-diazaspiro[5.5]undecane-3-carbonyl]-2,3-dihydro-1H-inden-1-yl]-benzamide], the figures for the inhibition at 10 µM in assay [1] and in assay [2] were 101% and 35%, respectively.

In the case of `CN(C(=O)NCc1ccccc1Cl)C1CCc2ccc(C(=O)N3CCC4(CC3)CCN(c3ccncc3)CC4)cc21` (centres unmarked) [Ind_CC-023], the “% Inhibition (rat B1R) at 10 μM” value in assay [1] was found to be 93%. Also, the “% Inhibition (human B1R) at 10 μM” value in assay [2] was determined as 98%.

In the case of `CC1(C)Cc2ccc(C(=O)N3CCC4(CC3)CCN(c3ccncc3)CC4)cc2C1NC(=O)c1sccc1Cl` (centres unmarked) [Ind_CC-065, 3-chloro-N-[2,2-dimethyl-6-(9-pyridin-4-yl-3,9-diazaspiro[5.5]undecane-3-carbonyl)-1,3-dihydro-inden-1-yl]-thiophene-2-carboxylic acid amide], the inhibition at 10 µM came to 98% in assay [1] and 94% in assay [2].

On to `COc1ccc(C(=O)N[C@@H]2CCc3ccc(C(=O)N4CCC5(CCN(c6ccncc6)CC5)C4)cc32)c(C)c1` [Example H-61, 4-Methoxy-2-methyl-N-[(1R)-6-(8-pyridin-4-yl-3,8-diazaspiro[4.5]decane-3-carbonyl)-2,3-dihydro-1H-inden-1-yl]-benzamide], for which the values for the inhibition at 10 µM in assay [1] and in assay [2] were 104% and 100%, respectively.

On to `O=C(NC1CCc2ccc(C(=O)N3CCC4(CCC(N5CC(F)(F)C5)CC4)CC3)cc21)c1ccccc1Cl` (centres unmarked) [Example H-07, 2-chloro-N-[6-[9-(3,3-difluoro-azetidin-1-yl)-3-azaspiro[5.5]undecane-3-carbonyl]-2,3-dihydro-1H-inden-1-yl]-benzamide], for which the inhibition at 10 µM in assay [1] came to 69%; in assay [2], 34%.

Regarding `CN(C(=O)c1ccccc1Cl)C1CCc2ccc(C(=O)N3CCC4(CCN(c5ccncc5)CC4)C3)cc21` (centres unmarked) [Example H-49, 2-chloro-N-methyl-N-[6-(8-pyridin-4-yl-3,8-diazaspiro[4.5]decane-3-carbonyl)-2,3-dihydro-1H-inden-1-yl]-benzamide], in assay [1] (10 µM), the “% Inhibition (rat B1R) at 10 μM” value was determined as 100%. Besides, the “% Inhibition (human B1R) at 10 μM” value in assay [2] (10 µM) is listed as 99%.

Regarding `O=C(NC1CCc2ccc(C(=O)N3CCC4(CCN(c5ccncc5)CC4)C3)cc21)c1c(F)cccc1Cl` (centres unmarked) [IND_CC-280, 2-Chloro-6-fluoro-N-[6-(8-pyridin-4-yl-2,8-diazaspiro[4.5]decane-2-carbonyl)-2,3-dihydro-1H-inden-1-yl]-benzamide], the inhibition at 10 µM was found to be 108% in assay [1] and 100% in assay [2].

In the case of `O=C(c1ccc2c(c1)[C@H](NS(=O)(=O)c1ccccc1C(F)(F)F)CC2)N1CCC2(CCN(c3ccncc3)CC2)C1` [Example H-118, N-[(1R)-6-(8-Pyridin-4-yl-3,8-diazaspiro[4.5]decane-3-carbonyl)-2,3-dihydro-1H-inden-1-yl]-2-(trifluoromethyl)-benzenesulfonic acid amide], the inhibition at 10 µM in assay [1] is 101%; in assay [2], 100%.

Consider `CC1(C)Cc2ccc(C(=O)N3CCC4(CC3)CCN(c3ccncc3)CC4)cc2C1NC(=O)c1cccc(Cl)c1Cl` (centres unmarked) [IND_CC-282, 2,3-Dichloro-N-[2,2-dimethyl-6-(9-pyridin-4-yl-3,9-diazaspiro[5.5]undecane-3-carbonyl)-1,3-dihydro-inden-1-yl]-benzamide], for which the results for the inhibition at 10 µM in assay [1] and in assay [2] were 107% and 69%, respectively.

Take `O=C(c1cccc2c1CC[C@H]2N1Cc2cccc(Cl)c2C1=O)N1CCC2(CCN(c3ccncc3)CC2)C1` [Example H-169, 7-Chloro-2-[(1R)-4-(8-pyridin-4-yl-3,8-diazaspiro[4.5]decane-3-carbonyl)-2,3-dihydro-1H-inden-1-yl]-2,3-dihydro-isoindol-1-one]: the values for the inhibition at 10 µM in assay [1] and in assay [2] were 12% and 54%, respectively.

The values above are taken from patent US8455475B2 (Gruenenthal GmbH, priority 2009, dated 2013).
